In data set [1] the test system is Platelet. Kind of data set: Inhibition of […]-induced platelet aggregation in citreated rabbit platelet-rich plasma by turbidimetric method. Particulars: Oryctolagus cuniculus. The class given is functional.
In data set [2] the test system is Platelet. The experiment in a line: Inhibition of U46619-induced platelet aggregation in citreated rabbit platelet-rich plasma by turbidimetric method. The class given is functional. Particulars: Oryctolagus cuniculus.
The subject of data set [3] is Platelet. Kind of data set: Inhibition of thrombin-induced platelet aggregation in citreated rabbit platelet-rich plasma by turbidimetric method. In kind it is functional. Particulars: Oryctolagus cuniculus.
Data set [4] concerns Platelet. The experiment in a line: Inhibition of arachidonic acid-induced platelet aggregation in citreated rabbit platelet-rich plasma by turbidimetric method. The class given is functional. Particulars: Oryctolagus cuniculus.
A short description of data set [5]: Cytotoxicity against rabbit platelet assessed as LDH release. The class given is cell-based, Oryctolagus cuniculus. Also on record: concentration or dose not given beside the values.
Data set [6] concerns Raji. The experiment in a line: Inhibition of 12-O-tetradecanoylphorbol-13-acetate induced EBV-early antigen activation in human Raji cells assessed as EA activation at 10 molar ratio after 48 hrs relative to TPA. In kind it is cell-based. The arrangement: scale not given: the % may be the effect or the level left. Particulars: human gammaherpesvirus 4.
Data set [7] deals with Raji. Kind of data set: Inhibition of 12-O-tetradecanoylphorbol-13-acetate induced EBV-early antigen activation in human Raji cells assessed as EA activation at 100 molar ratio after 48 hrs relative to TPA. The class given is cell-based. Also on record: scale not given: the % may be the effect or the level left. Particulars: human gammaherpesvirus 4.
The subject of data set [8] is Raji. Kind of data set: Inhibition of 12-O-tetradecanoylphorbol-13-acetate induced EBV-early antigen activation in human Raji cells assessed as EA activation at 500 molar ratio after 48 hrs relative to TPA. In kind it is cell-based. The arrangement: scale not given: the % may be the effect or the level left. Particulars: human gammaherpesvirus 4.
The subject of data set [9] is Raji. Kind of data set: Inhibition of 12-O-tetradecanoylphorbol-13-acetate induced EBV-early antigen activation in human Raji cells assessed as EA activation at 1000 molar ratio after 48 hrs relative to TPA. The class given is cell-based. The arrangement: scale not given: the % may be the effect or the level left. Particulars: human gammaherpesvirus 4.
Data set [10] can be described thus: Cytotoxicity against human Raji cells assessed as cell viability at 1000 molar ratio by trypan blue assay. The class given is cell-based. Particulars: read-out: Activity.

The values below come from ChEMBL document CHEMBL1157941, “Sapinmusaponins F-J, bioactive tirucallane-type saponins from the galls of Sapindus mukorossi” (J Nat Prod, 2006).

Some results are limits rather than exact numbers.

The term IC50 denotes the concentration at which inhibition is half-maximal. Take `CC(C)=CCC(O)[C@@](C)(O)[C@H]1CC[C@]2(C)[C@@H]1CC[C@@H]1[C@@]3(C)CC[C@H](O[C@@H]4O[C@H](CO)[C@@H](O)[C@H](O)[C@H]4O[C@@H]4O[C@@H](C)[C@H](O)[C@@H](O)[C@H]4O)C(C)(C)[C@@H]3C[C@H](O)[C@]12C` (some centres undefined) [SAPINMUSAPONIN A]: the IC50 in the data set with Platelet [1], in the data set with Platelet [2], with Platelet [3] and with Platelet [4] was more than 100 µM throughout. Also, in [5], the Activity was determined as 62.3%.

Take `CC(C)=CC(O)C(O)[C@@](C)(O)[C@H]1CC[C@]2(C)[C@@H]1CC[C@@H]1[C@@]3(C)CC[C@H](O[C@@H]4O[C@H](CO)[C@@H](O)[C@H](O)[C@H]4O[C@@H]4O[C@@H](C)[C@H](O)[C@@H](O)[C@H]4O)C(C)(C)[C@@H]3C[C@H](O)[C@]12C` (some centres undefined) [SAPINMUSAPONIN B]: the IC50 in the data set with Platelet [1], in the data set with Platelet [2], with Platelet [3] and in the data set with Platelet [4] was more than 100 µM throughout. Moreover, the Activity in data set [5] came to 62.3%.

Turning to `C[C@@H]1O[C@@H](O[C@H]2[C@H](O[C@H]3CC[C@]4(C)[C@H]5CC[C@@H]6[C@@H]([C@](C)(O)C(O)/C=C/C(C)(C)O)CC[C@@]6(C)[C@]5(C)[C@@H](O)C[C@H]4C3(C)C)O[C@H](CO)[C@@H](O)[C@@H]2O)[C@H](O)[C@H](O)[C@H]1O` (some centres undefined) [SAPINMUSAPONIN C], the half-maximal inhibitory concentration (IC50) in the data set on Platelet [1], with Platelet [2], in the data set with Platelet [3] and in the data set on Platelet [4] was more than 100 µM each time. Besides, the Activity in data set [5] was found to be 62.3%.

On to `COC(C)(C)/C=C/C(O)[C@@](C)(O)[C@H]1CC[C@]2(C)[C@@H]1CC[C@@H]1[C@@]3(C)CC[C@H](O[C@@H]4O[C@H](CO)[C@@H](O)[C@H](O)[C@H]4O[C@@H]4O[C@@H](C)[C@H](O)[C@@H](O)[C@H]4O)C(C)(C)[C@@H]3C[C@H](O)[C@]12C` (some centres undefined) [SAPINMUSAPONIN D], for which the IC50 in the data set on Platelet [1], with Platelet [2], in the data set with Platelet [3] and in the data set with Platelet [4] was more than 100 µM throughout. Also, the Activity in data set [5] came to 62.3%.

Regarding `CO[C@H]1O[C@H](C=C(C)C)C[C@H]1[C@@H]1CC[C@]2(C)C3=CC[C@H]4C(C)(C)[C@@H](O[C@@H]5O[C@H](CO[C@@H]6O[C@@H](C)[C@H](O)[C@@H](O)[C@H]6O)[C@@H](O)[C@H](O)[C@H]5O)CC[C@]4(C)[C@H]3CC[C@@]12C` [SAPINMUSAPONIN F], the IC50 in the data set with Platelet [1] was found to be 7.7 µM; with Platelet [2], 3.4 µM; in the data set on Platelet [3], 8.4 µM; with Platelet [4], 6.7 µM. Further, the Activity is less than 10% in data set [5]; 100% with Raji [6]; 82.6% in the data set on Raji [7]; 53.6% with Raji [8]; 9.1% with Raji [9]. Besides, the viability at 1000 molar ratio in [10] was 60%.

Take `CO[C@@H]1O[C@H](C=C(C)C)C[C@H]1[C@@H]1CC[C@]2(C)C3=CC[C@H]4C(C)(C)[C@@H](O[C@@H]5O[C@H](CO[C@@H]6O[C@@H](C)[C@H](O)[C@@H](O)[C@H]6O)[C@@H](O)[C@H](O)[C@H]5O)CC[C@]4(C)[C@H]3CC[C@@]12C` [SAPINMUSAPONIN G]: the IC50 in the data set on Platelet [1] was found to be 13.5 µM; in the data set on Platelet [2] it was 5.4 µM; in the data set with Platelet [3], 8.9 µM; in the data set on Platelet [4] it was 12.5 µM. Also, the Activity in [5] is less than 10%; in the data set on Raji [6] it was 100%; with Raji [7] it was 83.7%; in the data set with Raji [8] it was 53.9%; in the data set with Raji [9] it was 9.7%. Moreover, the viability at 1000 molar ratio in data set [10] worked out at 60%.

As to `CO[C@@H]1O[C@H](C=C(C)C)C[C@H]1[C@@H]1CC[C@]2(C)C3=CC[C@H]4C(C)(C)[C@@H](O[C@@H]5O[C@H](CO)[C@@H](O)[C@H](O)[C@H]5O[C@@H]5O[C@@H](C)[C@H](O)[C@@H](O)[C@H]5O)CC[C@]4(C)[C@H]3CC[C@@]12C` [SAPINMUSAPONIN H], the IC50 with Platelet [1] is 4.6 µM; in the data set on Platelet [2] it was 16.3 µM; in the data set on Platelet [3], more than 100 µM; in the data set on Platelet [4] it was 71.5 µM. For the same molecule, the Activity in data set [5] is less than 10%; in the data set on Raji [6], 100%; in the data set on Raji [7], 83.7%; in the data set on Raji [8], 54.4%; with Raji [9], 11%. In addition, the viability at 1000 molar ratio in data set [10] worked out at 60%.

Turning to `CO[C@H]1O[C@H](C=C(C)C)C[C@H]1[C@@H]1CC[C@]2(C)C3=CC[C@H]4C(C)(C)[C@@H](O[C@@H]5O[C@H](CO[C@@H]6O[C@@H](C)[C@H](O)[C@@H](O)[C@H]6O)[C@@H](O)[C@H](O)[C@H]5O[C@@H]5O[C@@H](C)[C@H](O)[C@@H](O)[C@H]5O)CC[C@]4(C)[C@H]3CC[C@@]12C` [SAPINMUSAPONIN I], the figures for the IC50 in the data set with Platelet [1], with Platelet [3] and with Platelet [4] were 11.8 µM, 41.4 µM and 2.3 µM, respectively. The Activity in data set [5] was less than 10%; with Raji [6], 100%; in the data set on Raji [7], 82.6%; in the data set on Raji [8] it was 60.5%; in the data set on Raji [9], 14.3%. For the same molecule, the viability at 1000 molar ratio in data set [10] was 60%.
